Reference: article PMC8962522, “Direct interaction of TrkA/CD44v3 is essential for NGF-promoted aggressiveness of breast cancer cells” (Journal of Experimental & Clinical Cancer Research : CR, 2022)

Assays:
[1] = system: TrkA-His tagged extracellular domain protein (Ala 34-Gly423); assay: MST binding of CD44v3 mimetic peptides to TrkA; settings: TrkA-His 200 nM labelled with RED-Tris-NTA, PBS-T
Protocol: (§1) MST was conducted using an NT.115 A Pico MST instrument (Nano Temper Technologies GmbH) equipped with red and blue filter sets. The TrkA-His tagged extracellular domain protein (Ala 34-Gly423) (9966-TK-050; R&D Systems, United Kingdom), diluted to 200 nM in PBS-T buffer (supplied by the vendor), was labeled using a Monolith His-Tag Labeling Kit with RED-Tris-NTA (Nano Temper). The RED-Tris-NTA dye was diluted in PBS-T to 100 nM. The mix was incubated at RT in the dark for 30 min. Next, an extract expressing CD44v3-labeled protein (CD44v3-His) and ligand and/or TrkA was mixed at a 1:1 ratio and incubated at RT in the dark for 15 min. For the binding check, peptides and TrkA-His were used. Capillaries were filled individually and loaded into the instrument. The data were acquired using high MST power and 100% LED. The data were analyzed using MO Control Software (Nano Temper).
Fig. 2 The C-terminal region of CD44v3 and the His112 residue of TrkA are involved in the CD44v3/TrkA interaction. TrkA/CD44v3 complex association was detected by the proximity ligation assay (PLA) in wild-type TrkA- or TrkA_H112A- and CD44v3-expressing COS-7 cells. Proximity ligation assays were performed after 0, 5 and 30 min of NGF treatment (100 ng/ml). Representative images of signals detected by PLA (A) and their quantification (B). Sequence of CD44 exon variant 3 and deletion mutant Δ3 or Δ4 (C). TrkA/CD44v3 complex association was detected by PLA in wild-type TrkA and CD44v3 wild type or CD44v3 deleted mutant Δ3 or Δ4 expressing COS-7 (D, E). Sequence of CD44v3 mimetic peptides (F) and structure (G). TrkA binding to CD44v3 mimetic peptides by microscale thermophoresis (H) and effects of CD44v3 mimetic peptides 3 (RDRHLSFSGSG) and 4 ([…]) on TrkA/CD44v3 complex formation (I, J). Quantification of PLA was performed using ImageJ software (30 fields per condition of three different experiments). Statistical analyses were performed using one-way ANOVA followed by Bonferroni’s posttest.
To block the TrkA-CD44v3 association, 4 mimetic peptides of CD44v3 were designed corresponding to zone 1 [(K) STSSNTISAG], zone 2 (WEPNEENEDE), zone 3 (RDRHLSFSGSG) and zone 4 (IDDDEDFISST) (Fig. 2F & G). The binding capacities of the CD44v3 mimetic peptides to TrkA were then measured by MST (Fig. 2H). […] To confirm mimetic peptide 4 binding, we assessed its ability to bind TrkA using nanoscale differential scanning fluorimetry (nanoDSF; Supplementary Fig. 6A & B).

[2] = system: CD44v3 (CD44v3-His, whole cell extracts of COS-7 cells expressing CD44v3); assay: MST binding of NGF, TrkA or FGF to CD44v3; settings: whole cell extracts of COS-7 expressing CD44v3, NGF alone, TrkA alone or FGF control
Protocol: as §1
(§2) Fig. 1 The C-terminal region of CD44 variant 3 binds to TrkA. A Schematic representation of the CD44 gene and protein structure. Alternative splicing leads to the expression of CD44 variants, thus the insertion of exon 8 leads to the expression of a CD44 protein containing variant 3 (CD44v3) and the insertion of exon 11 leads to the expression of a CD44 containing variant 6 (CD44v6) (B) TrkA/CD44v3 complex formation in COS-7 cells expressing TrkA and CD44v3 was detected by the proximity ligation assay (PLA), which was performed 0, 5 and 30 min after the initiation of NGF (100 ng/ml) treatment. The images represent signals detected by PLA. Quantification of the red spots was performed by ImageJ software (30 randomly chosen fields per condition of three different experiments). Statistical analyses were performed using one-way ANOVA followed by Bonferroni’s posttest. Error bars represent the standard error of the mean (S.E.M.); *** p < 0.001. ns, nonsignificant. C NGF and/or TrkA binding to CD44v3 was measured by microscale thermophoresis (MST). MST experiments were performed on whole cell extracts of COS-7 cells expressing CD44v3. […]

[3] = system: TrkA/CD44v3 complex in COS-7 cells expressing TrkA and CD44v3; assay: PLA TrkA/CD44v3 complex formation in COS-7 cells; format: cell-based, African green monkey (COS-7 cells); settings: COS-7 expressing TrkA and CD44v3, NGF 100 ng/ml, 0, 5 and 30 min, 30 fields per condition, three experiments
Protocol: (§3) Cells (10,000 cells per well) were grown on acid-washed eight-well glass slides (Thermo Scientific) in the appropriate medium supplemented with 10% FBS for 24 h. After NGF treatment, paraformaldehyde (PAF)-fixed cells were incubated with 4% bovine serum albumin (BSA) or 5% FBS (for 1 h at 20 °C), followed by overnight incubation with primary antibodies (rabbit anti-TrkA or rabbit anti-IgG + mouse anti-pan-CD44; mouse anti-CD44v3; mouse anti-CD44v6; mouse anti-IgG2a; mouse anti-IgG2b; or mouse anti-IgG1). PLA was performed following the manufacturer’s instructions in the assay kit (Duolink PLA; Sigma–Aldrich). To obtain the correct representation of the PLA signal for each condition, 30 fields per condition were observed using a fluorescence microscope (Eclipse TiU; Nikon, Japan). The PLA signals (red dots) were automatically quantified using ImageJ software (with an in-house-developed plug-in). After PLA, statistical analyses were performed using GraphPad Prism software to determine the mean dot intensity in the cells.
as §2
Fig. 2 The C-terminal region of CD44v3 and the His112 residue of TrkA are involved in the CD44v3/TrkA interaction. TrkA/CD44v3 complex association was detected by the proximity ligation assay (PLA) in wild-type TrkA- or TrkA_H112A- and CD44v3-expressing COS-7 cells. […] Representative images of signals detected by PLA (A) and their quantification (B). […] TrkA/CD44v3 complex association was detected by PLA in wild-type TrkA and CD44v3 wild type or CD44v3 deleted mutant Δ3 or Δ4 expressing COS-7 (D, E). […] Quantification of PLA was performed using ImageJ software (30 fields per condition of three different experiments). […]

[4] = system: TrkA/CD44v3 complex in MDA-MB-231 cells; assay: PLA TrkA/CD44v3 complex formation in MDA-MB-231 cells; format: cell-based; settings: NGF 100 ng/ml; 30 fields per condition, three experiments
Protocol: as §3
Fig. 3 CD44v3 mimetic peptide 4 blocks the TrkA-CD44 association in MDA-MB-231 breast cancer cells. TrkA/CD44v3 (A) and TrkA/CD44v6 (B) complex associations were detected by the proximity ligation assay (PLA) in MDA-MB-231 breast cancer cells. Effects of a scramble peptide (SP) (C), CD44v3 mimetic peptide 3 (P3) and 4 (P4) (D) on TrkA/CD44v3 complex formation induced by NGF. Quantification of the PLA results was performed by ImageJ software (30 randomly chosen fields per condition of three different experiments). Statistical analyses were performed using one-way ANOVA followed by Bonferroni’s posttest. The error bars represent the standard error of the mean (S.E.M.); * p < 0.05, ** p < 0.01, *** p < 0.001; ns, not significant

**Q.** For “KSTSSNTISAG [Peptide 1, CD44v3 mimetic peptide corresponding to zone 1 [(K) […]]]”, which “binding to TrkA by MST (in words)” value [1] is on record?
**A.** neither peptide 1 ([…]) nor peptide 2 ([…]) could bind TrkA

**Q.** How did the “binding to TrkA by MST (in words)” value [1] turn out when “WEPNEENEDE [Peptide 2, CD44v3 mimetic peptide corresponding to zone 2 (…)]” was run?
**A.** neither peptide 1 (KSTSSNTISAG) nor peptide 2 (WEPNEENEDE) could bind TrkA

**Q.** Which “binding to CD44v3 (in words)” value [2] does the source give for “FGF-1: fibroblast growth factor, positive control for CD44v3 binding” here?
**A.** In contrast to FGF-1 (Supplementary Fig. 4), NGF did not bind to CD44v3

**Q.** For “RDRHLSFSGSG [Peptide 3, CD44v3 mimetic peptide corresponding to zone 3 (…)]”, which “effect on TrkA/CD44v3 complex formation (PLA) in COS-7 cells” value [3] is on record?
**A.** did not inhibit TrkA/CD44v3 complex formation

**Q.** What about the “effect on TrkA/CD44v3 complex formation (PLA) in COS-7 cells” value ([3]; listed as P3) of the same substance?
**A.** did not abolish complex formation

**Q.** What about the “binding to TrkA by MST (in words)” value ([1]; listed as P3) of the same substance?
**A.** also bound TrkA

**Q.** What about the “effect on TrkA/CD44v3 complex formation (PLA) in MDA-MB-231 cells” value [4] of the same substance?
**A.** neither a scramble peptide (Fig. 3C) nor mimetic peptide P3 (Fig. 3D) inhibited TrkA/CD44v3 complex formation following NGF treatment

**Q.** For “FGF-2: FGF-2 (control), binding to CD44v3”, which “binding to CD44v3 (in words)” value [2] is on record?
**A.** binding to CD44v3 but not to NGF was detected
